Measured values published in PMC6141739, “TFPI-2 Protects Against Gram-Negative Bacterial Infection” (Frontiers in Immunology, 2018).

Legend:
[1] = tested on: Escherichia coli; assay: Viable count assay (VCA); type: cell-based, Escherichia coli ATCC 25922
Procedure: Escherichia coli bacteria were grown to mid-logarithmic phase in 10 ml of (3% w/v) Todd-Hewitt (TH), bacteria were washed and diluted in buffer 10 mM Tris, pH 7.4, containing 150 mM NaCl, either alone or with the presence of human 20% citrate plasma, lepirudin, heparin, EDTA plasma, or serum. 1–2 × 10^6 cfu/ml bacteria were incubated in a total volume of 50 μl with the indicated concentrations of C-terminal TFPI-2 derived peptides for 2 h at 37°C. Alternatively, 1–2 × 10^6 cfu/ml of E. coli bacteria in the presence or absence of EDC34 were incubated either in PBS alone or PBS supplemented with 25% of human citrated plasma, immunoglobulins depleted citrated plasma, or immunoglobulins depleted citrated plasma supplemented with 10 μg of IgG/μl, for 2 h at 37°C. Serial of dilutions of the reaction mixture were plated on TH agar plates, followed by the incubation at 37°C overnight. The number of colony forming units was determined as a percentage to control sample.

[2] = tested on: P. aeruginosa; assay: Viable count assay (VCA); type: cell-based, Pseudomonas aeruginosa; conditions: 20% human citrate plasma, 2 h 37°C (Figure 3A,B); text does not separate the two bacteria
[3] = tested on: IgA; assay: Binding to IgA, SDS-PAGE and immunoblotting; design: species or system human; conditions: 0.5 μg EDC34 with 3 μg IgA, 1 h 37°C; immunoblot (Figure 1C)
Procedure: (§1) Three μg of IgG or IgA or IgE or IgM were incubated in 20 μl of buffer (10 mM Tris, 150 mM NaCl, pH 7.4), either alone or with 0.5 μg (6 μM) of EDC34 for 1 h at 37°C. Samples were diluted in SDS buffer and analyzed under non-reducing conditions by SDS-PAGE on Criterion TGX Any kD Gel (BioRad). Alternatively, EDC34 (6 μM) was incubated either alone or in PBS containing 20% serum, citrate, lepirudin, EDTA plasma at different time points (15, 30, 60, and 120 min). Samples were analyzed under non-reducing conditions.

[4] = tested on: Fab-IgG; assay: Binding to Fab fragment of IgG, western blot; conditions: 6 μM EDC34 with 6 μM Fab-IgG, 30 min 37°C; western blot (Figure 1E)
Procedure: (§2) Six μM of EDC34 was either incubated alone or with IgGs in 10 mM Tris, 150 mM NaCl, pH 7.4 buffer, under similar concentrations for 15, 30, 60, 120 min or 24 h at 37°C. In another experiment, 6 μM of EDC34 was pre-incubated with 50 μM of TCEP (tris(2-carboxyethyl)phosphine) for 30 min at room temperature before IgG (6 μM) was added. The mixture was further incubated for 24 h at 37°C. In another experiment, 6 μM of IgG or Fab-IgG or Fc-IgG were incubated with or without 6 μM of EDC34 in 10 mM Tris, 150 mM NaCl, pH 7.4 buffer for 30 min at 37°C. Proteins and peptides were transferred to nitrocellulose membranes (Hybond-C), blocked by 5% (w/v) skimmed milk, washed and incubated with rabbit polyclonal antibodies to CAK27 or rabbit polyclonal antibodies to IgG (or 1:1,000) (Dako) or rabbit polyclonal antibodies to C1q (or 1:1,000) (Dako). Polyclonal swine anti-rabbit immunoglobulin secondary HRP antibody (1:1,000) was used for detection and an enhanced chemiluminescent Substrate (LumiGLO) developing system (Upstate cell signaling solutions).

[5] = tested on: human IgG; assay: Surface plasmon resonance on IgG-coated chip; type: binding; conditions: SPR, IgG on CM5 chip, peptide 25–400 nM, 25°C, Hepes running buffer pH 7.5 (Figure 3E)
Procedure: IgG was immobilized (15 μg/mL) on a CM5 sensor chip via amine coupling in a 10 mM sodium acetate buffer (pH 4). A blank immobilization was performed in flow cell one. EDC34 was injected at different concentrations (25–400 nM) at a flow rate of 30 μl/min and a temperature of 25°C over the flow cells using a running buffer containing 10 mm Hepes, 150 mm NaCl, 0.005% surfactant P20, and 3.4 mM EDTA (pH 7.5). Regeneration of the sensor surface was conducted in 0.5 M sodium chloride. The analysis was performed using a Biacore X100 instrument (GE Healthcare, Uppsala, Sweden) and the data was fitted using a 1:1 binding model.

[6] = tested on: Escherichia coli; assay: Radial diffusion assay (RDA); type: cell-based; conditions: 100 μM peptide, high salt (150 mM NaCl), n = 3 (Figure 3C,D)
Procedure: Escherichia coli was grown to mid-logarithmic phase in 10 ml (3% w/v) of trypticase soy broth (TSB). Bacteria were washed and re-suspended in 10 mM Tris, pH 7.4 to obtain a dilution of 1% of bacterial suspension (1–2 × 10^9 colony forming units cfu/ml). Subsequently, 6.6 μl of bacteria were added to 15 ml of melted underlay agarose gel consisting of 0.03% (w/v) TSB, 1% (w/v) low electroendosmosis type (EEO) agarose and 0.02% (v/v) Tween 20 (Sigma) with or without 150 mM NaCl. The mixture was poured to a 144 mm sterile petri dish and left to solidify. After that, 4 mm diameter wells were punctured and 100 μM peptides were added to each well. Plates were incubated for 3 h at 37°C and then covered by adding 15 ml of over-lay gel consisting of 6% TSB and 1% Low-EEO agarose in Millipore water. After 16–24 h of incubation at 37°C, the peptides diffusion around each well formed the zone of inhibition, which corresponded to the peptide's antimicrobial activity.

[7] = tested on: Fc-IgG; assay: Binding to Fc fragment of IgG, western blot; conditions: 6 μM EDC34 with 6 μM Fc-IgG, 30 min 37°C; western blot (Figure 1E)
Procedure: as §2

[8] = tested on: human IgG on E. coli bacteria; assay: Pull down assay, IgG opsonization on the bacterial surface; design: species or system Escherichia coli
Procedure: In a total volume of 500 μl PBS buffer, 2 μM of EDC34, and 8 μM of IgG were incubated for 24 h at 37°C. Subsequently, E. coli bacteria (1–2 × 10^6 cfu/ml) were added, and then the mixture was incubated for additional 1 h. In a parallel experiment, the bacteria in the presence of absence of EDC34 were incubated for 30 min at 37°C before IgG was added for 1 h at 37°C. Samples were then centrifuged, bacterial pellets were washed twice with PBS and then re-suspended in 360 μl of 0.1 M glycine, pH 2.0 to elute the bound proteins. The pH of the eluted material was raised to 7.5 with 1 M Tris. Thereafter, 100 μl of 100% TCA were added to precipitate the eluted proteins followed by incubation for 10 min at −20° C followed by a centrifugation step for 20 min at 15,000 × g (4°C). The pellets were washed with acetone and left to air dry before they were dissolved in loading dye and analyzed under non-reducing conditions by SDS-PAGE, followed by Western blot analysis.

[9] = tested on: IgM; assay: Binding to IgM, SDS-PAGE and immunoblotting; design: species or system human; conditions: 0.5 μg EDC34 with 3 μg IgM, 1 h 37°C; immunoblot (Figure 1C)
Procedure: as §1

[10] = tested on: C1q; conditions: cited from earlier work
Source text: (§3) Previous studies have shown that complement activation can be amplified by targeting certain proteins such as complement factor C3 ([33]). Elvington et al. for instance described in 2012 a method showing that complement activation can be used as cancer therapy. To this end the authors employed a fusion protein of a complement receptor and an IgG Fc fragment to improve the outcome of mAb therapy in a murine metastatic cancer model ([33]). […] Moreover EDC34 is able to up re ...

[11] = tested on: C3a; conditions: cited from earlier work
Source text: as §3

[12] = tested on: Gram-negative bacteria; conditions: cited from earlier work
Source text: as §3

[13] = tested on: C1q on the surface of E. coli bacteria; assay: Pull down assay, C1q recruitment to the bacterial surface; design: species or system Escherichia coli; conditions: citrate plasma with 10 μM EDC34, 1 h 37°C; anti-C1q immunoblot; versus plasma alone (Figure 2B)
[14] = tested on: IgG; assay: Binding to IgG, SDS-PAGE and immunoblotting; design: species or system human
Procedure: as §1
as §2, with “Polyclonal swine anti-rabbit immunoglobulin secondary HRP antibody (1:1,000) was used for detection and an enhanced chemiluminescent Substrate (LumiGLO) developing system (Upstate cell signaling solutions).” left out

[15] = target: IgE (Homo sapiens, UniProt P01854); assay: Binding to IgE, SDS-PAGE and immunoblotting; conditions: 0.5 μg EDC34 with 3 μg IgE, 1 h 37°C; immunoblot (Figure 1C)
Procedure: as §1

IgM, sequence (P01871 1-453 isoform P01871-1): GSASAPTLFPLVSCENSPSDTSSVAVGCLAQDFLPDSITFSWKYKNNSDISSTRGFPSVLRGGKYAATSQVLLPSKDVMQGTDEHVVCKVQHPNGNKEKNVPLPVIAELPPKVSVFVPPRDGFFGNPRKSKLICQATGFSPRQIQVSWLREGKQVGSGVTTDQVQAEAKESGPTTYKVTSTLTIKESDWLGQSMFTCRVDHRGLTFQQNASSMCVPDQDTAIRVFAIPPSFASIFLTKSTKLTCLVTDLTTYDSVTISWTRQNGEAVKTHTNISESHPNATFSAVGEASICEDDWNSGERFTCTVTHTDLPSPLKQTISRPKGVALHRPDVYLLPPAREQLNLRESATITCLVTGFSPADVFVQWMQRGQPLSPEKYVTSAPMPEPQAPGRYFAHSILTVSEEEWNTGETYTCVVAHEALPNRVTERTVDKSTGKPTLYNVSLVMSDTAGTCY
IgM, sequence (P01591 23-159, further chain): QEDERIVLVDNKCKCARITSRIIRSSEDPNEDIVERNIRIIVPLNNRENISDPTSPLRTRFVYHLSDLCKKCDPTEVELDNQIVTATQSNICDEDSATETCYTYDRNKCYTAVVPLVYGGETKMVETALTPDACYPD
IgE, sequence (P01854 1-428 isoform P01854-1): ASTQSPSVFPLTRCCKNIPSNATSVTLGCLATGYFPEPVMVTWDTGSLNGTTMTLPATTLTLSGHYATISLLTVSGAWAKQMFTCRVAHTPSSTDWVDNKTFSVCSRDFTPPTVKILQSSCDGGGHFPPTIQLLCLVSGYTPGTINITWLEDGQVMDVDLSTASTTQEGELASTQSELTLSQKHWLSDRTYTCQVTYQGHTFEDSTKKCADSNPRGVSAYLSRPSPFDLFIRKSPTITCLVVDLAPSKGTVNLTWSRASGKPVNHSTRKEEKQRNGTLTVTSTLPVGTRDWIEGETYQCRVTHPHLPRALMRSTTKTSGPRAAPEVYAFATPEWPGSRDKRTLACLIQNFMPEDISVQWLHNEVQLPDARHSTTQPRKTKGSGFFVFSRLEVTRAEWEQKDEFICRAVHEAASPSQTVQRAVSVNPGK

DAAQEPTGNNAET [DAA14, control peptide derived from the N-terminal region of human TFPI-2, reference compound]
antimicrobial activity in plasma, E. coli ([1]; 20% human citrate plasma, 2 h 37°C (Figure 3A,B), text does not separate the two bacteria): no antimicrobial activity | antimicrobial activity in plasma, P. aeruginosa [2]: no antimicrobial activity

EDCKRACAKALKKKKKMPKLRFASRIRKIRKKQF [EDC34, C-terminal peptide derived from human TFPI-2]
binding to IgA [3]: avidly binds | binding to Fab fragment of IgG [4]: only the Fc fragment is able to bind | affinity for human IgG [5]: highest affinity | antimicrobial activity, zone of inhibition [6]: able impair bacterial growth | antimicrobial activity against E. coli ([1]; EDC34 6 μM, 10 mM Tris, 150 mM NaCl, pH 7.4 with 20% citrate plasma, 2 h 37°C, n = 3 (Figure 1A)): completely eradicate the bacteria | antimicrobial activity against E. coli ([1]; EDC34 6 μM, buffer with 20% EDTA plasma, 2 h 37°C, n = 3 (Figure 1A)): decreased | bacterial survival rate ([1]; EDC34 6 μM, buffer with 20% heparin plasma, 2 h 37°C, n = 3 (Figure 1A)): exceeding 80% | antimicrobial activity against E. coli ([1]; EDC34 6 μM, buffer with 20% lepirudin plasma, 2 h 37°C, n = 3 (Figure 1A)): decreased | antimicrobial activity against E. coli ([1]; EDC34 6 μM, buffer with 20% serum, 2 h 37°C, n = 3 (Figure 1A)): decreased | killing of E. coli ([1]; EDC34 in PBS alone, 2 h 37°C, n = 3 (Figure 2C)): moderate killing activity | killing of E. coli ([1]; EDC34 in PBS with 25% citrate plasma, 2 h 37°C, n = 3 (Figure 2C)): ~100% | antimicrobial activity ([1]; EDC34 in PBS with 25% immunoglobulin-depleted citrate plasma reconstituted with IgG, 2 h 37°C, n = 3 (Figure 2C)): retained its full antimicrobial activity | bacterial survival ([1]; EDC34 in PBS with 25% immunoglobulin-depleted citrate plasma, 2 h 37°C, n = 3 (Figure 2C)): Bacterial survival was increased | binding to Fc fragment of IgG [7]: able to bind | opsonization of immunoglobulin on the bacterial surface ([8]; EDC34 (2 μM) pre-incubated with IgG (8 μM) 24 h in PBS, then E. coli 1 h 37°C (Figure 2A)): increased opsonization | opsonization of immunoglobulin on the bacterial surface ([8]; EDC34 first preincubated with E. coli bacteria, then mixed with human IgG (Figure 2A)): less pronounced | binding to IgM [9]: avidly binds | binding of C1q to bacterial surfaces [10]: enhances the binding of C1q to bacterial surfaces | antimicrobial activity of C3a [11]: able to up regulate the antimicrobial activity of C3a | eradication of Gram-negative bacteria in vivo [12]: significant capacity to eradicate | C1q at the surface of E. coli bacteria [13]: recruitment of C1q | binding to IgG ([14]; 0.5 μg EDC34 with 3 μg IgG, 10 mM Tris, 150 mM NaCl, pH 7.4, 1 h 37°C, immunoblot (Figure 1C)): avidly binds | interaction with IgG over time ([14]; EDC34 and IgG 1:1 (6 μM), 37°C, after 24 h incubation (Figure 1D)): entirely absorbed | binding to IgE [15]: avidly binds
